According to patent US11033547B2, “Carboxamide-pyrimidine derivatives as SHP2 antagonists” (Merck Patent GmbH, priority 2019, dated 2021):

Biological target: Full length SHP2 protein (Recombinant Human SHP-2) (Homo sapiens, UniProt Q06124)
Assay: SHP2 biochemical assay (DiFMUP substrate, activating peptide IRSI_2pY)
Conditions: DiFMUP substrate, activating peptide IRSI_2pY, 60 min at RT; read-out: SHP-2 Biochemical assay IC50
Method: The inhibition of SHP2 by compounds of the invention was monitored using the surrogate substrate DiFMUP after protein activation by a peptide bearing two appropriately spaced phosphotyrosine. […] The generation of the DiFMU product by activated SHP2 was monitored through Fluorescence measurement with a PerkinElmer Envision reader.
The inhibitor dose response curves were analyzed with Genedata Screener.

Full length SHP2 protein (Recombinant Human SHP-2), sequence (Q06124 2-593 limits assumed): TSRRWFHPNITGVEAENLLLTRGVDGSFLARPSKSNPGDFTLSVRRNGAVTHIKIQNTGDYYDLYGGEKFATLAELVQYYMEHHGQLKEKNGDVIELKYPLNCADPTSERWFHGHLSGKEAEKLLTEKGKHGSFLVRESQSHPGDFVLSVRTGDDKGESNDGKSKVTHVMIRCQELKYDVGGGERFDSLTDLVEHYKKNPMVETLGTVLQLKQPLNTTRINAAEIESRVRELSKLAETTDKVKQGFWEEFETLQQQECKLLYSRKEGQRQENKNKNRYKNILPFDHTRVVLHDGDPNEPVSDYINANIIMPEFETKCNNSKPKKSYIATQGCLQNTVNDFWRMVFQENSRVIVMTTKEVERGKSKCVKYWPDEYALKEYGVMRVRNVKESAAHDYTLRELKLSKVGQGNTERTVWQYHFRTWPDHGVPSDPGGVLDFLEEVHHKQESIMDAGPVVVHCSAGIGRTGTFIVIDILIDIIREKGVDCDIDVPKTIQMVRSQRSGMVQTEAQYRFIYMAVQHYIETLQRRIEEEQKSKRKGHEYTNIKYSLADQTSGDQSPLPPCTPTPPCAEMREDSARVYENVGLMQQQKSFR

SMILES	IC50 [µM]
NC(=O)c1nc(N[C@@H]2CCNC[C@@H]2F)nc(N)c1-c1cccc(Cl)c1Cl (atropisomer, axis not shown; (M)) [Compound 64, (5M)-6-amino-5-(2,3-dichlorophenyl)-2-{[(3S,4R)-3-fluoropiperidin-4-yl]amino}-pyrimidine-4-carboxamide]	10
Cc1nc(N[C@H]2CCC[C@@H](N)C2)nc(C(N)=O)c1-c1cccc(Cl)c1Cl (atropisomer, axis not shown; (M)) [Compound 87, (4M)-2-{[(1S,3R)-3-aminocyclohexyl]amino}-5-(2,3-dichlorophenyl)-6-methylpyrimidine-4-carboxamide]	1.2
NC(=O)c1nc(N2CCC(N)(C(F)F)CC2)nc(N)c1-c1cccc(Cl)c1Cl (atropisomer, axis not shown; (M)) [Compound 107, (5M)-6-amino-2-[4-amino-4-(difluoromethyl)piperidin-1-yl]-5-(2,3-dichlorophenyl)-pyrimidine-4-carboxamide]	3.2
COc1c(F)ccc(-c2c(C)nc(N3CCC(C)(N)CC3)nc2C(N)=O)c1Cl (atropisomer, axis not shown; (M)) [Compound 115, (4M)-2-(4-amino-4-methylpiperidin-1-yl)-5-(2-chloro-4-fluoro-3-methoxyphenyl)-6-methylpyrimidine-4-carboxamide]	0.57
Cc1nc(N2CCC(C)(N)CC2)nc(C(N)=O)c1-c1cccc(Cl)c1Cl (atropisomer, axis not shown; (P)) [Compound 31, (4P)-2-(4-amino-4-methylpiperidin-1-yl)-5-(2,3-dichlorophenyl)-6-methylpyrimidine-4-carboxamide]	7.9
Cc1nc(N2CCOC[C@@H]2CN)nc(C(N)=O)c1-c1cccc(Cl)c1Cl (atropisomer, axis not shown; (P)) [Compound 48, (4P)-2-[(3S)-3-(aminomethyl)morpholin-4-yl]-5-(2,3-dichlorophenyl)-6-methylpyrimidine-4-carboxamide]	> 10
C[C@]1(N)CCCN(c2nc(N)c(-c3cccc(Cl)c3Cl)c(C(N)=O)n2)CC1 (atropisomer, axis not shown; (P)) [Compound 108, (5P)-6-amino-2-[(4S)-4-amino-4-methylazepan-1-yl]-5-(2,3-dichlorophenyl)-pyrimidine-4-carboxamide]	1.3
Cc1nc(N2CCC3(CC2)CO[C@@H](C)[C@H]3N)nc(C(N)=O)c1-c1cccc(Cl)c1Cl (single isomer, unassigned) [Compound 94]	2.6
NC[C@]12CCCC[C@H]1CN(c1nc(N)c(-c3cccc(Cl)c3Cl)c(C(N)=O)n1)C2 (single isomer, unassigned) [Compound 103]	5.6
NC[C@]12CCC[C@H]1CN(c1nc(N)c(-c3cccc(Cl)c3Cl)c(C(N)=O)n1)C2 (single isomer, unassigned) [Compound 105]	10
Cc1nc(N2CCC3(CCC[C@H]3N)CC2)nc(C(N)=O)c1-c1cccc(Cl)c1Cl (single isomer, unassigned) [Compound 113]	0.66
NC(=O)c1nc(N2CCC3(CC2)Cc2ccccc2[C@H]3N)nc(N)c1-c1cccc(Cl)c1Cl (single isomer, unassigned) [Compound 118]	0.041
NC(=O)c1nc(N2CCC3(CC2)Oc2ncccc2C3N)nc(N)c1-c1cccc(Cl)c1Cl (single isomer, unassigned) [Compound 128]	0.006
NC(=O)c1nc(N2CCC3(CC2)Oc2ncccc2[C@@H]3N)nc(N)c1-c1cccc(Cl)c1Cl (single isomer, unassigned) [Compound 131]	7

Other lines, results leading:

IC50 [µM]	SMILES
1.4	CC1(N)CCN(c2nc(Cl)c(-c3cccc(Cl)c3Cl)c(C(N)=O)n2)CC1 (atropisomer, axis not shown; (M)) [Compound 78, (4M)-2-(4-amino-4-methylpiperidin-1-yl)-6-chloro-5-(2,3-dichlorophenyl)-pyrimidine-4-carboxamide]
3.7	NC[C@@]12CCC[C@@H]1CN(c1nc(N)c(-c3cccc(Cl)c3Cl)c(C(N)=O)n1)C2 (atropisomer, axis not shown; (M)) [Compound 99, (5M)-2-[(3aR,6aS)-3a-(aminomethyl)octahydrocyclopenta[c]pyrrol-2-yl]-6-amino-5-(2,3-dichlorophenyl)pyrimidine-4-carboxamide]
4.4	C[C@]1(N)CCCN(c2nc(N)c(-c3cccc(Cl)c3Cl)c(C(N)=O)n2)CC1 (atropisomer, axis not shown; (M)) [Compound 110, (5M)-6-amino-2-[(4S)-4-amino-4-methylazepan-1-yl]-5-(2,3-dichlorophenyl)-pyrimidine-4-carboxamide]
> 10	Cc1nc(N2CCOC[C@H]2CN)nc(C(N)=O)c1-c1cccc(Cl)c1Cl (atropisomer, axis not shown; (P)) [Compound 47, (4P)-2-[(3R)-3-(aminomethyl)morpholin-4-yl]-5-(2,3-dichlorophenyl)-6-methylpyrimidine-4-carboxamide]
13	Cc1nc(N[C@@H]2CCC[C@H](N)C2)nc(C(N)=O)c1-c1cccc(Cl)c1Cl (atropisomer, axis not shown; (P)) [Compound 89, (4P)-2-{[(1R,3S)-3-aminocyclohexyl]amino}-5-(2,3-dichlorophenyl)-6-methylpyrimidine-4-carboxamide]
> 10	Cc1nc(N[C@H]2CCC[C@@H](N)C2)nc(C(N)=O)c1-c1cccc(Cl)c1Cl (atropisomer, axis not shown; (P)) [Compound 90, (4P)-2-{[(1S,3R)-3-aminocyclohexyl]amino}-5-(2,3-dichlorophenyl)-6-methylpyrimidine-4-carboxamide]
15	NC(=O)c1nc(N2CCC(N)(C(F)F)CC2)nc(N)c1-c1cccc(Cl)c1Cl (atropisomer, axis not shown; (P)) [Compound 106, (5P)-6-amino-2-[4-amino-4-(difluoromethyl)piperidin-1-yl]-5-(2,3-dichlorophenyl)-pyrimidine-4-carboxamide]
> 10	COc1c(F)ccc(-c2c(C)nc(N3CCC(C)(N)CC3)nc2C(N)=O)c1Cl (atropisomer, axis not shown; (P)) [Compound 116, (4P)-2-(4-amino-4-methylpiperidin-1-yl)-5-(2-chloro-4-fluoro-3-methoxyphenyl)-6-methylpyrimidine-4-carboxamide]
8.8	NC(=O)c1nc(N2C[C@H]3CCCCC[C@@H](C2)C3N)nc(N)c1-c1cccc(Cl)c1Cl (single isomer, unassigned) [Compound 14]
17	NC[C@@]12CCCC[C@@H]1CN(c1nc(N)c(-c3cccc(Cl)c3Cl)c(C(N)=O)n1)C2 (single isomer, unassigned) [Compound 102]
0.33	NC(=O)c1nc(N2CCC3(CC2)Oc2ncccc2C3N)nc(N)c1-c1cccc(Cl)c1Cl (single isomer, unassigned) [Compound 129]
0.077	NC(=O)c1nc(N2CCC3(CC2)Oc2ncccc2[C@@H]3N)nc(N)c1-c1cccc(Cl)c1Cl (single isomer, unassigned) [Compound 130]
1.1	Cc1nc(N2CCC3(CCC[C@H]3N)C2)nc(C(N)=O)c1-c1cccc(Cl)c1Cl (stereo in doubt) [Compound 35, 2-((R)-6-Amino-2-aza-spiro[4.4]non-2-yl)-5-(2,3-dichloro-phenyl)-6-methyl-pyrimidine-4-carboxylic acid amide]
